Test system: IL 1-induced release of neutral protease from rabbit articular chondrocytes
Experiment: inhibition of IL 1-induced release of neutral protease from rabbit articular chondrocytes
Assay type: cell-based, rabbit (New Zealand White)
Details: Oryctolagus cuniculus, Chondrocyte, human IL 1 stimulation, 24 h, compound added 10 min before IL 1, ± S.D., read-out: % Inhibition (of protease secretion)
Description: The ability of the compounds of the inventions to inhibit interleukin 1 is measured by the ability of the test compounds to inhibit the IL 1-induced release of neutral protease from rabbit articular chondrocytes.
Male New Zealand White rabbits are anesthetized with 50 mg/kg of ketamine (i.m.) and killed by an intracardiac injection of 3 mls. of Nembutal. The knee joints of both legs are resected and the articular surfaces are exposed. Cartilage slices are obtained using a scalpel and are placed in a tissue culture dish (100 mm diameter) containing 10 mls of Hank's balanced salt solution (HBSS). The chondrocytes within the cartilage slices are then liberated by a series of enzyme digestions. The slices are incubated for 10 min. at 37° C. in 0.05% hyaluronidase (Sigma H-3884), rinsed with HBSS and incubated with 0.2% trypsin (Sigma T-2395) for 10 min. at 37° C. The slices are rinsed again and incubated for 10 mins. at 37° C. with 1.2% collagenase (Sigma C-5138). The slices are then rinsed again with HBSS and resuspended in 10 ml of Ham's F-12 medium containing 10% fetal bovine calf serum (FCS) and 0.2 % collagenase and incubated overnight at 37° C. in a 5% CO2 incubator. The next day, the medium containing the digested cartilage fragments and liberated chondrocytes is transferred to a 15 ml centrifuge tube and the cells are collected by centrifugation and washed twice and resuspended in Ham's F-12 medium. The cells are then plated into 24-well tissue culture plates (2×10^5 cells/well) and incubated at 37° C. until confluent (usually 4-6 days).
The confluent chondrocytes are rinsed twice with serum-free Ham's F-12 medium and 1 ml is added to each well. Fifty μl of purified human IL 1 (100 Units/ml; Genzyme Corporation, Boston, MA) is then added to stimulate these cells to secrete neutral protease. To measure drug effects, the cells are treated with test compound 10 min. prior to addition of IL 1. The standard screening dose is 10 μM. Twenty-four hours after IL 1 stimulation, supernatant fluids are collected and assayed for neutral protease activity.
The neutral protease activity of chondrocyte supernatant fluids is determined by their ability to degrade an insoluble protease substrate, azocoll (Sigma). Supernatants are treated for 10 min. at room temperature with 350 μM p-aminophenylmercuric acetate to activate the latent enzyme. Three hundred μl of supernatant is then mixed with 500 μl of a 20 mg/ml suspension of azocoll and incubated at 37° C. for 18-24 hrs. with gentle rocking. The mixtures are centrifuged and the amount of substrate hydrolyzed is determined by measuring the absorbance of the supernatant at 520 nm.
Drug effects are calculated as the % change in enzyme activity (absorbance)by supernatants from drug-treated chondrocytes relative to enzyme activity of supernatants from vehicle-treated chondrocytes as follows: % Inhibition of Protease Secretion= [formula]

Compound | inhibition at 1 µM [%] | inhibition at 5 µM [%] | inhibition at 10 µM [%]
N#Cc1ccc(N2CCC3(CC2)Nc2cc(Cl)ccc2C(=O)O3)cc1 [Example 1, 4-[7-Chloro-1,3-dihydro-4-oxospiro[2H-3,1-benzoxazine-2,4'-piperidin]-1-yl]benzonitrile] | 56 ± 22 | 55 ± 19 | 47 ± 34
CS(=O)(=O)c1ccc(N2CCC3(CC2)Nc2cc(Cl)ccc2C(=O)O3)cc1 [Example 2, 7-Chloro-1'-[4-(methylsulfonyl)phenyl]spiro[2H-3,1-benzoxazine-2,4'-piperidin]-4(1H)-one] | 30 ± 31 | 48 ± 7 | 51 ± 32
